Measurements from the SangsterLogP compilation.

For `CN(C)/N=N/c1ccc(C(N)=O)cc1`, which logP is on record?
The logP was 1.17.

With `CCCCCCCCCCCCCCCCCCN(C)N=Nc1ccc(C(=O)O)cc1` as the compound, how does the logP read?
Its logP is 7.6.

For `C#CCN(C)N=Nc1ccc(C(=O)O)cc1`, which logP is on record?
The logP was -0.13.

Which logP does the source give for `CCN(C)N=Nc1ccc(C(=O)O)cc1` here?
Its logP is 0.03.

For `CN(C)/N=N/c1ccc(C(=O)O)cc1`, which logP is on record?
Its logP is -0.29.

With `CCCCCCCCCCCCN(C)N=Nc1ccc(C(N)=O)cc1` as the compound, how does the logP read?
Its logP is 6.58.

With `CCCCCCCN(C)N=Nc1ccc(C(=O)O)cc1` as the compound, how does the logP read?
Its logP is 2.37.

With `CN(O)N=Nc1ccc(C(N)=O)cc1` as the compound, how does the logP read?
Its logP is -0.22.

Which logP does the source give for `CCCCCCCN(C)/N=N/c1ccc(C(N)=O)cc1` here?
The logP was 4.15.

With `CCCCCCCCCCCCN(C)N=Nc1ccc(C(=O)O)cc1` as the compound, how does the logP read?
Its logP is 4.77.

With `C=CCN(C)N=Nc1ccc(C(=O)O)cc1` as the compound, how does the logP read?
Its logP is 0.38.

For `CN(Cc1ccccc1)N=Nc1ccc(C(=O)O)cc1`, which logP is on record?
Its logP is 0.94.

Which logP does the source give for `CC(C)N(C)N=Nc1ccc(C(=O)O)cc1` here?
The logP was 0.42.

Which logP does the source give for `CN(CCO)/N=N/c1ccc(C(N)=O)cc1` here?
The logP was 0.26.

With `CCCCCCN(C)N=Nc1ccc(C(N)=O)cc1` as the compound, how does the logP read?
The logP was 3.59.

With `CCCCCCCCN(C)N=Nc1ccc(C(=O)O)cc1` as the compound, how does the logP read?
Its logP is 2.96.
